Measurements: US9845349B2 (priority 2012, dated 2017)
Several values for one entry are separate records, joined by “and”; a condition that tells them apart may be missing. Equal values may be shown once.

These substances were tested against LFG2:4B10 mAb. Settings: not given.

Which results are given for AFKDEIGGGSK-biotin?
Kd: 0.0287 µM and 0.0351 µM; Response R: 0.556 and 0.5352

For TAKDEIGGGSK-biotin, which Kd is on record?
The Kd was 0.0315 µM and 0.0209 µM.

And the “Response R” value?
The value was 3.7854 and 3.7743.

Which Kd does the source give for TFADEIGGGSK-biotin here?
The Kd was 0.0252 µM and 0.0239 µM.

What about the “Response R” value of the same substance?
The value was 0.4475 and 0.4596.

For TFKAEIGGGSK-biotin, which “Response R” value is on record?
The value was 0.2612 and 0.2492.

Which results are given for TFKDAIGGGSK-biotin?
Kd: 0.0245 µM; Response R: 1.0132

How did the Kd turn out when TFKDEAGGGSK-biotin was run?
Its Kd is 0.0164 µM.

What about the “Response R” value of the same substance?
Its value is 5.2909.

Which Kd does the source give for TFKDEIGGGSK-biotin here?
Its Kd is 0.00997 µM.

And the “Response R” value?
Its value is 4.8387.

What about the binding response of the same substance?
Its binding response is 4.83 nm.

And the “improvement in binding response versus native epitope THQDEIYEQK-biotin” value?
Its value is roughly 7 fold.

How did the Kd turn out when TFQDEIGGGSK-biotin was run?
Its Kd is 0.0344 µM.

And the “Response R” value?
The value was 1.3414.

For THKDEIGGGSK-biotin, which Kd is on record?
Its Kd is 0.06 µM.

What about the “Response R” value of the same substance?
Its value is 2.3704.

THQDEIYEQK-biotin was tested. Which Kd did it give?
Its Kd is 0.0531 µM.

And the “Response R” value?
The value was 0.7024.

What about the binding response of the same substance?
Its binding response is 0.7 nm.

Same assay, conditions: read-out: dissociation (KD)

With TFKDEIGGGSK-biotin as the substance, how does the Kd read?
Its Kd is 0.0139 µM.

How did the Kd turn out when THQDEIYEQK-biotin was run?
The Kd was 0.053 µM.
